Laboratory results taken from patent publication US20160273042A1, “GENETIC MARKERS OF ANTIPSYCHOTIC RESPONSE” (SUREGENE, LLC, priority 2013, published 2016).
Where “and” joins values, the source holds several entries; their conditions need not be identical. Identical values can stand only once. Entries after “also recorded” stand apart in the source; their conditions may differ.

Key:
[1] = tested on: patients of the CATIE study (schizophrenia); test: CATIE trial: change in PANSS score (delta PANSS, LOCF) for subjects stratified by GARP genetic signature status; type: in vivo, human; conditions: for Delta PANSS, Mean, GARP-1 negative: GARP-1 negative subjects; for Delta PANSS, Mean, GARP-1 negative / Delta PANSS, Mean, GARP-1 positive / Delta PANSS, Mean, GARP-2 negative / Delta PANSS, Mean, GARP-3 negative / Delta PANSS, Mean, GARP-3 positive / Delta PANSS, Mean, GARP-4 negative / Delta PANSS, Mean, GARP-4 positive / Delta PANSS, Mean, GARP-2 positive: LOCF, CATIE Phases 1-2; for Delta PANSS, Mean, GARP-1 positive / response in GARP-1 positive subjects, in words: GARP-1 positive subjects; for Delta PANSS, Mean, GARP-2 negative: GARP-2 negative subjects; for Delta PANSS, Mean, GARP-3 negative: GARP-3 negative subjects; for Delta PANSS, Mean, GARP-3 positive / response in GARP-3 positive subjects, in words: GARP-3 positive subjects; for Delta PANSS, Mean, GARP-4 negative: GARP-4 negative subjects; for Delta PANSS, Mean, GARP-4 positive: GARP-4 positive subjects; for response in GARP-1 positive subjects, in words: compared with GARP-1 negative subjects or with other drugs; for Relative efficacy (positive), GARP-1: GARP-1 positive versus negative subjects; for Relative efficacy (positive), GARP-1 / Relative efficacy (positive), GARP-2 / Relative efficacy (positive), GARP-3 / Relative efficacy (positive), GARP-4: t-test; for Relative efficacy (positive), GARP-2: GARP-2 positive versus negative subjects; for Relative efficacy (positive), GARP-3: GARP-3 positive versus negative subjects; for Relative efficacy (positive), GARP-4: GARP-4 positive versus negative subjects; for response in GARP-2 positive subjects, in words: compared with GARP-2 negative subjects or with other drugs; for response in GARP-3 positive subjects, in words: compared with GARP-3 negative subjects or with other drugs; for response in GARP-2 positive subjects, in words / Delta PANSS, Mean, GARP-2 positive: GARP-2 positive subjects
Experimental: The CATIE study, a large federally funded clinical trial designed to assess the efficacy of antipsychotics in a real world setting, is a valuable resource for determining the role of genes in baseline psychopathology and drug response (Lieberman et al., 2005; Stroup et al., 2003). […] Additionally, whole genome SNP genotyping was performed for roughly half of the trial participants (Sullivan et al., 2008).
Genotype and phenotype data for the CATIE trial were recently made available to qualified researchers through the NIMH Center for Collaborative Genetic Studies on Mental Disorders. The sample consisted of a total of 738 patients. Further details on the patient population are described in the study by Sullivan and coworkers (Sullivan et al., 2008). The CATIE SNP genotype data evaluated included a total of 492,900 SNPs located throughout the genome.
The design of the CATIE study has been described in detail by others (Lieberman et al., 2005; Stroup et al., 2003). […] Subjects that failed Phase 1 treatment with the typical antipsychotic perphenazine were treated differently than those subjects that failed phase I treatment with an atypical antipsychotic. Instead of entering into Phase II of the trial, subjects who switched from perphenazine entered Phase IB. […] Subjects who failed Phase IB then entered Phase II.
A total of 738 subjects consented to provide DNA for genetic study. […] Only retrospective genetic analyses, judged to be exempt from human studies requirements by an IRB, were conducted in the current study. For the genetic analyses presented herein, the inventors combined and evaluated drug response data for Phase IA, Phase IB, and Phase II of the CATIE study. All tested patients were studied using well established clinical endpoints comparing baseline, intermediate, and last observation carried forward (LOCF) for the PANSS scores using CATIE data. LOCF analysis is a commonly used clinical endpoint for clinical trials for neuropsychiatric drugs, with particular changes in PANSS scores being used to indicate clinically significant response (Leucht et al., 2009).
Using the clinical data from the CATIE trial, the inventors derived several different metrics used for quantifying response in clinical trials of antipsychotic medications. The most commonly used psychometric instrument is the Positive and Negative Syndrome Scale (PANSS), a 30-item semi-quantitative instrument scored by clinical professionals (Kay et al., 1987). The greater the decrease in PANSS score, the better the clinical response. The most direct measure of clinical response is absolute change in PANSS score (delta PANSS). In addition to absolute change, the improvement is often reported as a percentage change from baseline PANSS score.
As mentioned previously, the mean change in PANSS at LOCF provides an important measure of efficacy in patients undergoing antipsychotic treatments. Indeed, many pivotal trials in the psychosis field used absolute and/or percentage change in PANSS Score as the primary endpoint (Leucht et al., 2009). […] Therefore, the inventors determined the impact of segmentation by GARP genetic signature status on the quantitative measure of clinical improvement—delta PANSS (for LOCF).
Each table lists the six drugs used during the first two phases of the CATIE trial.

[2] = hierarchy high / medium / low risk; cited from earlier work
[3] = tested on: psychotic symptoms (PANSS); conditions: versus first generation antipsychotics; cited from earlier work
[4] = tested on: psychotic symptoms (PANSS); conditions: difference in mean response drug minus placebo arm, divided by standard deviation; negative = greater reduction in PANSS; cited from earlier work

| Structure (SMILES) | Delta PANSS, Mean, GARP-1 negative [1] | Delta PANSS, Mean, GARP-1 positive [1] | Delta PANSS, Mean, GARP-2 negative [1] | Delta PANSS, Mean, GARP-3 negative [1] | Delta PANSS, Mean, GARP-3 positive [1] | Delta PANSS, Mean, GARP-4 negative [1] | Delta PANSS, Mean, GARP-4 positive [1] | worse response of GARP-2 positive than GARP-2 negative patients ([1]; difference in delta PANSS, GARP-2 positive vs negative) | risk for weight gain, classification [2] | response in GARP-1 positive subjects, in words [1] | Relative efficacy (positive), GARP-1 [1] | Relative efficacy (positive), GARP-2 [1] | Relative efficacy (positive), GARP-3 [1] | Relative efficacy (positive), GARP-4 [1] | Effect Size vs. FGA [3] | response in GARP-2 positive subjects, in words [1] | response in GARP-3 positive subjects, in words [1] | Effect Size vs. Placebo [4] | response in GARP-1 positive subjects, in words ([1]; listed as ziprasidone) | Delta PANSS, Mean, GARP-2 positive [1] |
| --- | --- | --- | --- | --- | --- | --- | --- | --- | --- | --- | --- | --- | --- | --- | --- | --- | --- | --- | --- | --- |
| CN1CCN(C2=Nc3cc(Cl)ccc3Nc3ccccc32)CC1 [Clozapine, clozapine] | −15.32 | −14.0 | −24.33 | −13.6 | −31 | −13.4 | −26.3 | ~20 points | – | – | – | – | – | – | – | – | – | – | – | – |
| O=C1CCc2ccc(OCCCCN3CCN(c4cccc(Cl)c4Cl)CC3)cc2N1 [aripiprazole] | – | – | – | – | – | – | – | – | low risk | NON-response | – | – | – | – | – | – | – | – | – | – |
| Cc1cc2c(s1)Nc1ccccc1N=C2N1CCN(C)CC1 [Olanzapine, olanzapine] | −7.48 | – | −10.73 | −9.5 | −6.3 | −9.0 | −9.3 | – | high risk | – | Enhanced | Neutral | Neutral | Neutral | – | – | – | – | – | – |
| Cc1nc2n(c(=O)c1CCN1CCC(c3noc4cc(F)ccc34)CC1)CCCC2 [Risperidone, risperidone] | −4.55 | – | −4.65 | −6.9 | 2.1 | −5.4 | −6.7 | – | medium risk | enhanced response; also recorded: significant efficacy | Enhanced | Neutral | Decreased | Neutral | −0.25 | superior efficacy | decreased response; also recorded: responded poorly | −0.59 | – | – |
| O=C1Cc2cc(CCN3CCN(c4nsc5ccccc45)CC3)c(Cl)cc2N1 [Ziprasidone, ziprasidone] | −2.94 | 12.72 and 12.7 | 3.51 | −0.1 | −4.5 | 0.4 | −4.3 | – | low risk | worsening of symptoms | Decreased | Enhanced | Neutral | Neutral | −0.04 | enhanced response | – | −0.48 | decreased response; also recorded: responded particularly poorly; also recorded: NON-response | −2.8 |
| OCCOCCN1CCN(C2=Nc3ccccc3Sc3ccccc32)CC1 [Quetiapine, quetiapine] | −0.53 | – | −2.86 | −0.1 | −4.3 | −0.7 | −1.6 | – | medium risk | Neither quetiapine nor perphenazine demonstrated efficacy | Neutral | Decreased | Neutral | Neutral | 0.01 | decreased response; also recorded: responded worse; also recorded: lack of efficacy | enhanced response; also recorded: responded significantly better | −0.42 | – | 1.51 and 1.5 |
| OCCN1CCN(CCCN2c3ccccc3Sc3ccc(Cl)cc32)CC1 [Perphenazine, perphenazine] | −6.40 | 2.84 and 2.8 | 0.52 | −5.5 | 0.7 | −4.7 | −3.0 | – | – | decreased response; also recorded: Neither quetiapine nor perphenazine demonstrated efficacy | Decreased | Enhanced | Neutral | Neutral | – | enhanced response; also recorded: responded better; also recorded: superior efficacy | – | – | – | – |
